We go through one substance from patent US12616751B2, “Photosensitizing antibody-fluorophore conjugates” (The USA, as represented by the Secretary, Department of …, priority 2010, dated 2026).

Series [1] has as its system A431 (HER1+) tumors. Description: In vivo PIT efficacy in A431 tumors. On the procedure:
To determine the effect of Pan-IR700 or carrier alone followed by PIT, the following methods were used. […] Four days after A431 cell injection as described above, tumor volume reaching around 40 mm^3 were selected for the study. […] To test a short-term toxicity, 300 μg of Pan-IR700 was repeatedly administrated intravenously for non-tumor-bearing mice, twice a week, for 4 weeks.

Series [2] has as its system A431 cells. The class given is cell-based. On the procedure:
EGFR-expressing A431 cells were used as the target HER1+ cells. […] Cells were grown in RPMI 1640 supplemented with 10% fetal bovine serum and 1% penicillin/streptomycin in tissue culture flasks in a humidified incubator at 37° C. in an atmosphere of 95% air and 5% carbon dioxide. A431 or Balb/3T3/DsRed cells were seeded on cover glass-bottomed dishes and incubated for 24 hours. Pan-IR700 was added to the culture medium at 10 μg/mL and incubated either for 1 hour on ice or 6 hours at 37° C., then cells were washed with PBS. Culture medium was replaced with phenol red-free medium after washing with phosphate buffered saline (PBS).
PIT was performed as described in Examples 2 and 3.

Series [3] relates to 3T3/HER2 tumor. In words: In vivo fluorescence imaging of Pan-IR700 in HER1 negative tumor. More on the design: species or system mice. To be noted: mouse, listed as Pan-1R700. On the procedure:
To confirm antigen specific localization of Pan-IR700, 1×10^6 of 3T3/HER2 cells (HER1 negative) were injected subcutaneously in the right dorsum at the same time of A431 cells injection. […] Regions of interest (ROI) for both tumor and background were placed for equivalent sized areas containing the same number of pixels. Tumor to background ratio (TBR) was calculated using the following formula: TBR=((mean tumor intensity)−(mean background intensity))/((mean non-tumor intensity)−(mean background intensity)).

The test system of series [4] is A431 tumors. In words: Histological analysis immediately after PIT. The class given is in vivo, mice.
In series [5] the test system is A431 tumors. Description: In vivo FLT imaging after PIT. More on the design: species or system mice. On the procedure:
Reagents. […] All other chemicals used were of reagent grade. […] Then the mixture was purified with a Sephadex G50 column (PD-10; GE Healthcare). The protein concentrations were determined with Coomassie Plus protein assay kit (Pierce Biotechnology) by measuring light absorption at 595 nm (8453 Value System; Agilent Technologies). […] The number of IR700 per antibody was approximately 4 for the 1:4.5 reaction conditions. The addition of 0.4% SDS to the sample dissociated the fluorophores from each other, effectively causing dequenching. Quenching efficiency (QE) for a particular conjugation is defined as the fluorescence intensity with SDS divided by fluorescence intensity without SDS. […] Pan-1R700 was kept at 4° C. in the refrigerator as a stock solution. Fluorescence lifetime measurements. FLT experiments were performed with the eXplore OptixTm-MX2 system (ART Advanced Research Technologies, Inc.) (Hutchinson et al., Biophys J 68:1574-82, 1995; Ma et al., Appl Opt 46:1650-7, 2007). A fixed pulsed laser diode was used as an excitation source at a wavelength of 670 nm. Region of interest (ROI) measurements with a spot size of 1.5 mm were selected at the image plane. […] Lifetime analysis was performed by using the ART OptiView (ART Advanced Research Technologies, Inc.). Lifetime values and lifetime mapping were calculated to fit fluorescence temporal point-spread functions (TPSFs) as single-exponential models with the Fit TPSF tool. Photoimmunotherapy for in vitro and in vivo models. PIT was performed with a red light-emitting diode (LED) light at 680 to 700 nm wavelength (Tech-LED, Marubeni America Co.) (Mitsunaga et al., Bioconjug Chem. 23:604-9, 2012). Power densities were measured with an optical power meter (PM 100, Thorlabs). Determination of FLT for Pan-IR700. Samples of Pan-IR700 at concentrations of 2.5, 5, 20, 40 pg/mL were prepared by dilution with PBS. The fluorescence intensities and lifetimes of each sample were determined using the Optix MX2 system at room temperature within a 1.7 ml centrifuge tube. To investigate the effect of PIT using Pan-1R700, the FLT of each sample at the concentration of 50 pg/mL was measured after irradiating the samples at a PIT dose of 0, 2, 4, 8, 15, 30 J/cm2. Cell line. […] The cell line was grown in RPMI 1640 (Life Technologies) containing 10% fetal bovine serum (Life Technologies), 0.03% L-glutamine, 100 units/mL penicillin, and 100 μg/mL streptomycin in 5% CO2 at 37° C. Cell pellet FLT studies A431. Cells were plated on […] cell culture flasks and incubated until confluent. Then Pan-IR700 conjugate was added to the media (1 pg/mL), and cells were incubated for 24 h at 37° C. Upon completion of incubation, cells were removed from the flasks, and centrifuged to obtain pellets. The resulting cell pellets were washed with PBS×3 and placed in 1.7 mL centrifuge tubes. The fluorescence intensities and lifetimes of each sample were then obtained. […] After that, these pellets were gently washed with PBS×1 and fluorescence intensity and lifetime images were obtained. To detect the antigen specific localization of IR700 and to confirm the morphological changes of A431 cells before and after PIT, fluorescence microscopy was performed using Olympus BX61 microscope (Olympus America) equipped with the following filters: a 590-650 nm excitation filter, a 665-740 nm band pass emission filter. […]

Series [6] has as its system A431 cells. Description: Cell pellet FLT studies. The class given is cell-based. On the procedure:
Reagents. […] All other chemicals used were of reagent grade. […] Then the mixture was purified with a Sephadex G50 column (PD-10; GE Healthcare). The protein concentrations were determined with Coomassie Plus protein assay kit (Pierce Biotechnology) by measuring light absorption at 595 nm (8453 Value System; Agilent Technologies). […] The number of IR700 per antibody was approximately 4 for the 1:4.5 reaction conditions. The addition of 0.4% SDS to the sample dissociated the fluorophores from each other, effectively causing dequenching. Quenching efficiency (QE) for a particular conjugation is defined as the fluorescence intensity with SDS divided by fluorescence intensity without SDS. […] Pan-1R700 was kept at 4° C. in the refrigerator as a stock solution. Fluorescence lifetime measurements. FLT experiments were performed with the eXplore OptixTm-MX2 system (ART Advanced Research Technologies, Inc.) (Hutchinson et al., Biophys J 68:1574-82, 1995; Ma et al., Appl Opt 46:1650-7, 2007). […] Lifetime values and lifetime mapping were calculated to fit fluorescence temporal point-spread functions (TPSFs) as single-exponential models with the Fit TPSF tool. […] Power densities were measured with an optical power meter (PM 100, Thorlabs). […] The fluorescence intensities and lifetimes of each sample were determined using the Optix MX2 system at room temperature within a 1.7 ml centrifuge tube. To investigate the effect of PIT using Pan-1R700, the FLT of each sample at the concentration of 50 pg/mL was measured after irradiating the samples at a PIT dose of 0, 2, 4, 8, 15, 30 J/cm2. […] The fluorescence intensities and lifetimes of each sample were then obtained. […] After that, these pellets were gently washed with PBS×1 and fluorescence intensity and lifetime images were obtained. To detect the antigen specific localization of IR700 and to confirm the morphological changes of A431 cells before and after PIT, fluorescence microscopy was performed using Olympus BX61 microscope (Olympus America) equipped with the following filters: a 590-650 nm excitation filter, a 665-740 nm band pass emission filter. […]

Several values for one entry are separate records, joined by “and”; a condition that tells them apart may be missing. Identical values can stand only once. Entries after “also recorded” stand apart in the source; their conditions may differ.

For the substance “Pan-IR700: Panitumumab (anti-human EGFR IgG2 MAb) conjugated to IR700; about 3 to 4 IR700 per antibody”, the “tumor shrinkage of irradiated tumor” value in series [1] (300 μg, NIR light on day 1) is reported as “Tumor shrinkage was confirmed on day 7”. For the same substance, the survival time entry in series [1] (30 J cm^−2) is listed as “significant increases in survival time”. Moreover, in series [1] (30 J cm^−2, day 3, 7, 10, 14 and 17 after treatment), the tumor growth result is recorded as “significant tumor growth inhibition”. Further, the lethal side effects result in series [1] (during or after the treatment) is on record as “no lethal side effects were found”. Further, in series [1] (following irradiation), the “antitumor activity, 50 μg versus 300 μg” value is “less antitumor activity”. Also, the “pathological analysis of tumor” value in series [1] (four days following PIT) is “only scant viable A431 tumor cells were present”. Also, the “day at which PIT treated tumors began to shrink” value in series [1] (mouse, in vivo) came to 2 days. In series [1] (mouse, in vivo), the tissue edema entry was “tissue edema developed superficially”. The “cytotoxicity without excitation light” value in series [2] is “no significant cytotoxicity”. For the same substance, in series [2] (0.5 to 2 J cm^−2), the “cell death after irradiation” value was “rapid cell death in a dose-dependent manner”. For the same substance, the “cell killing by PIT (microscopy)” value in series [2] (FIG. 8) was “specifically killed”. In addition, the “target-specific phototoxicity in co-culture” value in series [2] (co-cultured with Balb/3T3/DsRed (HER1 negative) cells) is listed as “Target-specific phototoxicity was also confirmed”. Besides, the “fluorescence of HER1 negative tumor” value in series [3] was “the same as that of background; also recorded: did not show detectable fluorescence”. Further, the “necrosis (H-E histology)” value in series [4] (10 J/cm^2) was “necrotic cell damage was found in only limited areas”; in series [4] (30 or 50 J/cm^2) it was “Necrotic damage was diffuse and intense”. Also, the “FLT shortening compared with untreated control” value in series [5] (10 J/cm^2, 48 hours after PIT) came to 7.7%. In addition, the “FLT immediately after PIT, compared with no treatment controls” value in series [5] (30 J/cm^2) was 61.5+/−5.1% and 61.5 ± 15.1%; in series [5] (50 J/cm^2), 69.1+/−10.9%. For the same substance, the figures for the “FLT immediately after PIT, of untreated tumors in the same mouse” value in series [5] (30 J/cm^2) and in series [5] (50 J/cm^2) were 61.5%+/−5.05 and 69.0%+110.92, respectively. Also, the “shortening of FLT” value in series [6] (8 J/cm^2 versus before light exposure) was 9.1%; in series [6] (15 J/cm^2 versus before light exposure), 10.1%; in series [6] (30 J/cm^2 versus before light exposure) it was 13.1%.
